Patent EP0155104A2, “Free analyte assay” (priority 1984, dated 1985)
“And” between values parts separate entries of the source, which are not always exact repeats. Equal entries are not always repeated. Where two headings read alike, the source gives them in different places.

Key:
[1] = tested on: natural protein binders; conditions: in body fluids; cited from earlier work
[2] = biological target: T1, thyroxine binding globulin (TBG) (Homo sapiens, UniProt P05543); conditions: in body fluids; cited from earlier work
T1 sequence (P05543 21-415): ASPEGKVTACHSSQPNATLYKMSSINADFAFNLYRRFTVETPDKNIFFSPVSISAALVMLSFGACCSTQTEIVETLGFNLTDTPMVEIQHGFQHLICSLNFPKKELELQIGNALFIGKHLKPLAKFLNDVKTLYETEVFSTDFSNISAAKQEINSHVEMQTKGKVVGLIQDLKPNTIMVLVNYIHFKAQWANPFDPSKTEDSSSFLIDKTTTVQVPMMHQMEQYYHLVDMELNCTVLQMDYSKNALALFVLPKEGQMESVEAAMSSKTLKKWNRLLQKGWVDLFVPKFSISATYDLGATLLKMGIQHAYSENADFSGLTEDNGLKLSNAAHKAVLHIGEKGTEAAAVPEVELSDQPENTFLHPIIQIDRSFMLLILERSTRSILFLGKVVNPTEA

[3] = biological target: thyroxine binding prealbumin (TBPA) (Homo sapiens, UniProt P02766); conditions: in body fluids; cited from earlier work
[4] = tested on: serum proteins; assay: Amerlex free T4 radioimmunoassay: Bo value with added blocking agent; format: binding
[5] = biological target: albumin (Alb) (Homo sapiens, UniProt P02768); conditions: cited from earlier work
[6] = blocking agent 10^-2 M, no addition: 67.7
[7] = blocking agent 10^-3 M, no addition: 67.7

Sequence of albumin (Alb) (P02768 25-609): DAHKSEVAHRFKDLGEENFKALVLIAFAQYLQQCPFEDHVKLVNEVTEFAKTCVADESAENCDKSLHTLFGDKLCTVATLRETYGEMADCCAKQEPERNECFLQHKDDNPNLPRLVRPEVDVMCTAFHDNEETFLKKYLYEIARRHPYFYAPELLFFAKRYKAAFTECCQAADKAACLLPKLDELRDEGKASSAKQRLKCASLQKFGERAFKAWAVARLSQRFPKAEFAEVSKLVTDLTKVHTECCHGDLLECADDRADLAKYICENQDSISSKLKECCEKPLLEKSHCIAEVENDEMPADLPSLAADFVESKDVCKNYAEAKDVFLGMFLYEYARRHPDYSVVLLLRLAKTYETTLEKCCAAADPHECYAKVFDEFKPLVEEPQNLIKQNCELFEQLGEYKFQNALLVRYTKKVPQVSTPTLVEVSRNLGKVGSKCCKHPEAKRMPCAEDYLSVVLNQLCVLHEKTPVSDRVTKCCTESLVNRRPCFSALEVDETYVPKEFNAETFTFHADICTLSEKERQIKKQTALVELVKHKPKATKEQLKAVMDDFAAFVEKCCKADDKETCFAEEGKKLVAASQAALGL

N[C@@H](Cc1cc(I)c(Oc2cc(I)c(O)c(I)c2)c(I)c1)C(=O)O [T4, Thyroxine]
bound to natural protein binders [1]: 99.97% | share of the bound fraction bound to TBG [2]: 70% | share of the bound fraction bound to TBPA [3]: 20%

O=C([O-])c1ccccc1O.[Na+] [Salicylate, sodium salicylate]
Bo (% tracer bound) [4]: 72.6% and 69.5%

O=C(O)c1c(O)cccc1O [Gamma resorcylate, sodium gamma-resorcylate (2,6-dihydroxybenzoate)]
Bo (% tracer bound) [4, 6]: 51.6% | Bo (% tracer bound) [4, 7]: 70.3%

NC(=O)c1ccccc1O [Salicylamide, salicylamide]
Bo (% tracer bound) [4, 6]: 43.0% | Bo (% tracer bound) [4, 7]: 67.5%

N[C@@H](Cc1cc(I)c(Oc2ccc(O)c(I)c2)c(I)c1)C(=O)O [T3, Tri-iodothyronine]
in free form [1]: 0.3% | share of the bound fraction bound to TBG [2]: 60% | share of the bound fraction bound to TBPA [3]: 15% | share of the bound fraction bound to Alb [5]: 25%

O=C(O)c1cc(O)ccc1O [Gentisate, sodium gentisate (2,5-dihydroxybenzoate)]
Bo (% tracer bound) [4, 6]: 71.8% | Bo (% tracer bound) [4, 7]: 70.5%

O=C(O)c1cc(S(=O)(=O)O)ccc1O [SSA, 5-sulphosalicylic acid]
Bo (% tracer bound) ([4]; SSA 1x10^-2 M, no SSA: 65): 82.5% | Bo (% tracer bound) ([4]; SSA 1x10^-3 M, no SSA: 65): 74% | Bo (% tracer bound) ([4]; SSA 2x10^-2 M, T4-analogue tracer bound to antiserum at zero T4, no SSA: 65): 82% | Bo (% tracer bound) ([4]; SSA 2x10^-3 M, no SSA: 65): 80% | Bo (% tracer bound) ([4]; SSA 2x10^-4 M, no SSA: 65): 68% | Bo (% tracer bound) ([4]; SSA 5x10^-3 M, no SSA: 65): 78% | Bo (% tracer bound) ([4]; SSA 5x10^-4 M, no SSA: 65): 72% | Bo (% tracer bound) ([4]; SSA 5x10^-5 M, no SSA: 65): 66%

O=[N+]([O-])c1ccc(O)c([N+](=O)[O-])c1 [2,4-dinitrophenol]
Bo (% tracer bound) [4, 7]: 60.0%
